Results reported in patent US9233978B2, “6-fused heteroaryldihydropyrimidines for the treatment and prophylaxis of hepatitis B virus infection” (Hoffmann-La Roche Inc., priority 2014, dated 2016).
pEC50: −log10 of the molar value. ≈ marks a conversion by molar mass, not a printed value. Like-named read-outs stand apart in the source and are kept apart here.

Key:
HBV = assay: Anti-HBV activity in vitro, HepG2.2.15 cells, extracellular HBV DNA by qPCR; assay type: cell-based; settings: Hepatitis B virus, HepG2.2.15, 120 h
Summary of the method: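 Extracellular HBV DNA in culture supernatant was measured by qPCR after nucleic acid extraction. The supernatant came from constitutively replicating HepG2.2.15 cells exposed for five days to half-log-diluted compounds, with DMSO at 0.5% final. Cells had been plated overnight at 37 °C beforehand.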

Lysa solubility = assay type: physicochemical; settings: phosphate buffer, pH 6.5, aqueous buffer, thermodynamic from solid, 0.05 M phosphate buffer (pH 6.5)
Summary of the method: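 Duplicate samples dried from 10 mM DMSO stocks, taken up in 0.05 M phosphate buffer pH 6.5, stirred 1 h, shaken 2 h and left overnight. Filtrate and 1/10 dilution quantified by direct UV or HPLC-UV, in μg/mL; above 80% of the calculated maximum, reported as greater than that value.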

CYP3A4 = assay: Cytochrome P450 induction screening assay, mRNA induction in human cryopreserved hepatocytes; assay type: in vitro ADME; settings: CYP3A4 mRNA relative induction, 24 hours, test compound up to 10 μM
Description: Human cryopreserved hepatocytes (Life Technologies, Carlsbad, USA) were thawed and cultured in collagen I coated 96-well plates with a density of 52,000 cells/well. After attachment, medium was changed and cells were pre-cultured overnight in hepatocyte maintenance medium (HMM; Lonza, Switzerland).
Test compounds were dosed to the cells next morning at an indicated concentration (up to 10 μM) in HMM culture media containing gentamycin and a constant 0.1% DMSO. Similarly, dilutions of the positive inducer compounds omeprazole (prototypical inducer of human CYP1A2; final concentrations: 1 and 10 μM), phenobarbital (prototypical inducer of human CYP2B6; final concentrations: 100 and 1000 μM) and rifampicin (prototypical inducer of human CYP3A4; final concentrations: 1 and 10 μM) were prepared from 1000 fold DMSO stock solutions in HMM containing gentamycin. Medium change was then performed and cells were exposed for 24 hours to test compounds, positive inducer compounds, or vehicle (0.1% DMSO), respectively.
At the end of the compound exposure period, medium was removed and cells lysed using 100 μL/well MagNA Pure LC RNA isolation tissue lysis buffer (Roche Diagnostics AG, Rotkreuz, Switzerland). Plates were then sealed and frozen at −80° C. until further workup.
mRNA isolation was performed using the MagNA Pure 96 system (Roche Diagnostics AG, Rotkreuz, Switzerland) and the respective cellular RNA large volume kit (Roche Diagnostics AG, Rotkreuz, Switzerland) from thawed samples diluted 1:1 with PBS. The volume of the cell lysis and an elution volume of 100 μL were used. 20 μl of the resulting mRNA suspension was then used for reverse transcription using 20 μl of the transcript or first stand cDNA synthesis kit (Roche prime Supply, Mannheim, Germany). The resulting cDNA was diluted with 40 μl of H2O before using for qRT-PCR. qRT-PCR was performed by using the forward and the reverse primer, the corresponding UPL (all from Microsynth, Balgach, Switzerland) and the Taqman Fast advanced master mix (Applied Biosystems), on an ABI 7900 machine (Applied Biosystems).
qRT-PCR Ct-values for the respective P450s were put into relation to the Ct-value of RN18S1 (microsynth, Balgach, Switzerland) of the same sample. Doing so, a respective Δct-value was calculated. Using the average of all Δct-values for the vehicle control samples, a ΔΔct-value was calculated for each sample (ΔΔct-value(sample)=Δct-value(sample)−average of Δct-value of all vehicle controls). The fold induction of the respective sample was calculated as 2^(−ΔΔct). The individual fold induction values were then averaged per treatment condition (usually n=3 biological replicates).
Relative induction values to the respective positive inducer compound condition (10 μM omeprazole for CYP1A2; 1000 μM Phenobarbital for CYP2B6; 10 μM rifampicin for CYP3A4) were then calculated from the fold induction values as follows: Relative induction (%)=100×(T−V)/(P−V)

[1] = Cytotoxicity in HepDE19 cells (CCK-8) and selectivity index; assay type: cell-based; settings: human, HepDE19 cells; CCK-8 cell viability; five days after treatment
Description: (§1) HepG2.2.15 and HepDE19 are stably-transfected cell lines containing the HBV genome. Both cell lines are derived from the hepatoblastoma cell line Hep G2 (American Type Culture Collection, ATCC® HB-8065™) by the published procedures described in references: MA Selles et al. Proc. Natl. Acad. Sci. USA 1987, 84, 1005-1009 and H Guo et al. Journal of Virology 2007, 81, 12472-12484, respectively. Both cell lines were maintained in Dulbecco's modified Eagle's medium (DMEM)-F12 medium supplemented with 10% fetal bovine serum, 100 U/mL penicillin, 100 μg/mL streptomycin, and 0.5 mg/mL of G418.
(§2) HepDE19 cells were seeded into 96-well plates (5×10^3 cells per well) and treated with compounds for EC50 determination. Five days after treatment, cell viability was measured by addition of 20 μL of CCK-8 reagent. Two hours after incubation at 37° C., the absorbance at wavelengths of 450 nm and 630 nm (OD450 and OD630) was recorded by a plate reader. The concentration results in the death of 50% of the host cells (CC50) of each compound were determined.
(§3) The relative effectiveness of the compound in inhibiting viral replication compared to inducing cell death was defined as the selectivity index (CC50 value/EC50 value). Based on CC50 and EC50 data, selectivity indexes were determined.

HepDE19 cells = assay: as above; assay type: cell-based; settings: CC50 (HepDE19) value / EC50 (HepG2.2.15) value
Description: as §1, §2, §3

[2] = Human microsomal metabolic stability; assay type: in vitro ADME; settings: human microsomes 0.5 mg/mL, 1 μM test compound, NADPH, 37° C., pH 7.4, 0-30 minutes
Summary of the method: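 1 μM compound with 0.5 mg/mL human liver microsomal protein in 100 mM phosphate pH 7.4 at 37° C, started with 1 mM NADPH or a NADPH-regenerating system. Sampled at 0–30 min, quenched in cold methanol with tolbutamide internal standard; remaining parent quantified by LC-MS/MS.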

[3] = HepG2.2.15 cells, HBV replication inhibited by 50%, extracellular HBV DNA by qPCR, five days after compound treatment, read-out: EC50

Compound: COC(=O)C1=C(CN2CCN3C(=O)N(C4CC4)C[C@@H]3[C@H]2C(=O)O)NC(c2nccs2)=N[C@H]1c1ccc(F)cc1Cl (racemic) [Example 45, 7-[[(4R)-4-(2-chloro-4-fluoro-phenyl)-5-methoxycarbonyl-2-thiazol-2-yl-1,4-dihydropyrimidin-6-yl]methyl]-2-cyclopropyl-3-oxo-5,6,8,8a-tetrahydro-1H-imidazo[1,5-a]pyrazine-8-carboxylic acid]
- pEC50 (HBV; [3]): 7.59
- solubility thermodynamic (Lysa solubility): > 690 µg/mL
- % of Positive control (10 μM Rifampicin) (CYP3A4): 20%

Compound: CCOC(=O)C1=C(CN2CCN3C(=O)N(C4CC4)C[C@@H]3[C@H]2C(=O)O)NC(c2nccs2)=N[C@H]1c1cccc(F)c1Cl (single isomer, unassigned) [Example 82B]
- pEC50 (HBV): 8.70
- CC50 at 5 days [1]: > 100000 nM
- Selectivity index (CC50/EC50) (HepDE19 cells): >50000
- Human Microsomal Clearance [2]: 2.7 mL/min/kg
- % of Positive control (10 μM Rifampicin) (CYP3A4): 6%

Compound: COC(=O)C1=C(CN2CCN3C(=O)NC[C@@H]3C2)NC(c2nccs2)=N[C@H]1c1ccc(F)cc1Cl [Example 11, Methyl (4R)-6-[[(8aR)-3-oxo-1,2,5,6,8,8a-hexahydroimidazo[1,5-a]pyrazin-7-yl]methyl]-4-(2-chloro-4-fluoro-phenyl)-2-thiazol-2-yl-1,4-dihydropyrimidine-5-carboxylate]
- pEC50 (HBV; [3]): 9.00
- CC50 at 5 days [1]: 52000 nM
- Selectivity index (CC50/EC50) (HepDE19 cells): 30635
- % of Positive control (10 μM Rifampicin) (CYP3A4): 17%

Compound: CCOC(=O)C1=C(CN2CCN3C(=O)N(CC(C)(C)C(=O)O)C[C@@H]3C2)NC(c2nccs2)=N[C@H]1c1ccc(F)c(F)c1C [Example 22, 3-[(8aS)-7-[[(4S)-4-(3,4-difluoro-2-methyl-phenyl)-5-ethoxycarbonyl-2-thiazol-2-yl-1,4-dihydropyrimidin-6-yl]methyl]-3-oxo-5,6,8,8a-tetrahydro-1H-imidazo[1,5-a]pyrazin-2-yl]-2,2-dimethyl-propanoic acid]
- pEC50 (HBV; [3]): 8.52
- CC50 at 5 days [1]: > 100000 nM
- Selectivity index (CC50/EC50) (HepDE19 cells): >34482
- % of Positive control (10 μM Rifampicin) (CYP3A4): 0%

Compound: COC(=O)C1=C(CN2CCN3C(=O)N(c4ccc(C(=O)O)cc4)C[C@@H]3C2)NC(c2nccs2)=N[C@H]1c1ccc(F)cc1Cl [Example 25, (R)-6-[(S)-2-(4-Carboxy-phenyl)-3-oxo-hexahydro-imidazo[1,5-a]pyrazin-7-ylmethyl]-4-(2-chloro-4-fluoro-phenyl)-2-thiazol-2-yl-1,4-dihydro-pyrimidine-5-carboxylic acid methyl ester]
- pEC50 (HBV; [3]): 8.70
- Human Microsomal Clearance [2]: 0.4 mL/min/kg
- % of Positive control (10 μM Rifampicin) (CYP3A4): 0%

Compound: CCOC(=O)C1=C(CN2CCN3C(=O)N(c4cccc(C(=O)O)c4)C[C@@H]3C2)NC(c2nccs2)=N[C@H]1c1cccc(F)c1Cl [Example 27, (R)-6-[(S)-2-(3-Carboxy-phenyl)-3-oxo-hexahydro-imidazo[1,5-a]pyrazin-7-ylmethyl]-4-(2-chloro-3-fluoro-phenyl)-2-thiazol-2-yl-1,4-dihydro-pyrimidine-5-carboxylic acid ethyl ester]
- pEC50 (HBV; [3]): 8.52
- % of Positive control (10 μM Rifampicin) (CYP3A4): 0.2%

Compound: COC(=O)C1=C(CN2CCN3C(=O)N(C4CC4)CC3(CC(=O)O)C2)NC(c2nccs2)=N[C@H]1c1ccc(F)cc1Cl (stereo partly drawn) [Example 30, 2-[7-[[(4R)-4-(2-chloro-4-fluoro-phenyl)-5-methoxycarbonyl-2-thiazol-2-yl-1,4-dihydropyrimidin-6-yl]methyl]-2-cyclopropyl-3-oxo-1,5,6,8-tetrahydroimidazo[1,5-a]pyrazin-8a-yl]acetic acid]
- pEC50 (HBV; [3]): 7.02
- Human Microsomal Clearance [2]: 1.7 mL/min/kg
- solubility thermodynamic (Lysa solubility): 610 µg/mL (≈ 1010 µM)
- % of Positive control (10 μM Rifampicin) (CYP3A4): 7.3%

Compound: COC(=O)C1=C(CN2CCN3C(=O)N(CC(C)(C)C(=O)O)C[C@@H]3C2)NC(c2nccs2)=N[C@H]1c1ccc(F)c(F)c1C [Example 43, 3-[(8aS)-7-[[(4S)-4-(3,4-difluoro-2-methyl-phenyl)-5-methoxycarbonyl-2-thiazol-2-yl-1,4-dihydropyrimidin-6-yl]methyl]-3-oxo-5,6,8,8a-tetrahydro-1H-imidazo[1,5-a]pyrazin-2-yl]-2,2-dimethyl-propanoic acid]
- pEC50 (HBV; [3]): 8.22
- Human Microsomal Clearance [2]: 3.1 mL/min/kg
- % of Positive control (10 μM Rifampicin) (CYP3A4): 0.2%

Compound: COC(=O)C1=C(CN2CCN3C(=O)N(CC(C)(C)CC(=O)O)C[C@@H]3C2)NC(c2nccs2)=N[C@H]1c1ccc(F)cc1Cl [Example 55, 4-[(8aS)-7-[[(4R)-4-(2-chloro-4-fluoro-phenyl)-5-methoxycarbonyl-2-thiazol-2-yl-1,4-dihydropyrimidin-6-yl]methyl]-3-oxo-5,6,8,8a-tetrahydro-1H-imidazo[1,5-a]pyrazin-2-yl]-3,3-dimethyl-butanoic acid]
- pEC50 (HBV; [3]): 8.30
- CC50 at 5 days [1]: > 100000 nM
- Selectivity index (CC50/EC50) (HepDE19 cells): >20000
- solubility thermodynamic (Lysa solubility): 470 µg/mL (≈ 759 µM)
- % of Positive control (10 μM Rifampicin) (CYP3A4): 0.1%

Compound: COC(=O)C1=C(CN2CCN3C(=O)N(C4CC5(CC(C(=O)O)C5)C4)C[C@@H]3C2)NC(c2nccs2)=N[C@H]1c1ccc(F)cc1Cl (stereo partly drawn) [Example 79, 2-[(8aS)-7-[[(4R)-4-(2-chloro-4-fluoro-phenyl)-5-methoxycarbonyl-2-thiazol-2-yl-1,4-dihydropyrimidin-6-yl]methyl]-3-oxo-5,6,8,8a-tetrahydro-1H-imidazo[1,5-a]pyrazin-2-yl]spiro[3.3]heptane-6-carboxylic acid]
- pEC50 (HBV; [3]): 8.10
- CC50 at 5 days [1]: 52000 nM
- Selectivity index (CC50/EC50) (HepDE19 cells): 6500
- Human Microsomal Clearance [2]: 3.6 mL/min/kg
- solubility thermodynamic (Lysa solubility): 180 µg/mL (≈ 280 µM)

Compound: CCOC(=O)C1=C(CN2CCN3C(=O)N(CC4CC(C(=O)O)C4)C[C@@H]3C2)NC(c2nccs2)=N[C@H]1c1cccc(F)c1Cl (stereo partly drawn) [Example 81, 3-[[(8aS)-7-[[(4R)-4-(2-chloro-3-fluoro-phenyl)-5-ethoxycarbonyl-2-thiazol-2-yl-1,4-dihydropyrimidin-6-yl]methyl]-3-oxo-5,6,8,8a-tetrahydro-1H-imidazo[1,5-a]pyrazin-2-yl]methyl]cyclobutanecarboxylic acid]
- pEC50 (HBV; [3]): 8.00
- CC50 at 5 days [1]: 85000 nM
- Selectivity index (CC50/EC50) (HepDE19 cells): 8500
- Human Microsomal Clearance [2]: 0.1 mL/min/kg
- solubility thermodynamic (Lysa solubility): 279 µg/mL (≈ 442 µM)
